Read-outs that look alike come from different tables or passages of the source.
Assays:
[1] = Solubility in water; assay type: physicochemical
[2] = Acute toxicity study, rats; settings: rat, in vivo
Text: (§1) Acute toxicity studies have been conducted on compound 1 in order to obtain LD50 values.

[3] = Recent clinical trials, oral administration to asthmatic patients; assay type: in vivo; settings: administered orally to asthmatic patients
Text: This ability of compound 1 to be effective when administered orally is unusual and highly desirable.

[4] = Acute toxicity study, mice; settings: mouse, in vivo
Text: as §1

[5] = Physical stability of the physical forms / conversion between forms; assay type: physicochemical
[6] = Bioavailability of physical forms and compositions (general statement); settings: in vivo
[7] = Comparison of bioavailability in dogs (compositions with polyvinylpyrrolidone and forms A, B and X); assay type: in vivo; settings: 20 mg tablet with polyvinylpyrrolidone
Text: During each study period, blood samples were periodically obtained from each animal and the concentration of compound 1 determined.

SMILES | bioavailability [6] | Area under curve [7] | Maximum concentration [7] | physical stability [5] | Half-life [7] | also measured
COc1cc(C(=O)NS(=O)(=O)c2ccccc2C)ccc1Cc1cn(C)c2ccc(NC(=O)OC3CCCC3)cc12 [Compound 1, N-[4-[5-(cyclopentyloxycarbonyl)amino-l-methylindol-3-ylmethyl]-3-methoxybenzoyl]-2-methylbenzenesulphonamide] | – | – | – | – | – | solubility in water [1]: relatively poor solubility; LD50 [2]: > 500 mg/kg; effectiveness in the treatment of asthma [3]: effective; LD50 [4]: > 500 mg/kg
COc1cc(C(=O)NS(=O)(=O)c2ccccc2C)ccc1Cc1cn(C)c2ccc(NC(=O)OC3CCCC3)cc12 [Form A] | relatively good bioavailability | 4028 ng·h/mL | 1.004 µg/mL | – | – | conversion of form A into form B ([5]; in compositions, high relative humidity and elevated temperatures): conversion of form A into form B has been found to occur; stability of form A in the compositions ([5]; in the compositions according to the invention): acceptably stable; conversion into form B ([5]; in the presence of water): tends to convert into form B; Half-life ([7]; dog, blood, po, 20 mg, read-out: Half-life (converted)): 5.4 h
COc1cc(C(=O)NS(=O)(=O)c2ccccc2C)ccc1Cc1cn(C)c2ccc(NC(=O)OC3CCCC3)cc12 [Form X] | relatively poor bioavailability | 1307 ng·h/mL | 0.314 µg/mL | physically stable | 3.590 h | –
COc1cc(C(=O)NS(=O)(=O)c2ccccc2C)ccc1Cc1cn(C)c2ccc(NC(=O)OC3CCCC3)cc12 [forms B] | relatively poor bioavailability | – | – | physically stable | – | –
COc1cc(C(=O)NS(=O)(=O)c2ccccc2C)ccc1Cc1cn(C)c2ccc(NC(=O)OC3CCCC3)cc12 [Form B, N-[4-[5-(cyclopentyloxycarbonyl)amino-l-methylindol-3-yl-methyl]-3-methoxybenzoyl]-2-methylbenzenesulphonamide] | – | 773 ng·h/mL | 0.105 µg/mL | – | 3.524 h | temperature above which form B loses water [5]: above 60 °C
